{"source": "paper PMC3625961", "about": "(Synapse (New York, N.Y.), 2011)", "key": {"[1]": {"molecular_target": "T1, CRF1 receptor (Macaca mulatta, UniProt Q76LL8)", "T1 sequence (Q76LL8 24-415)": "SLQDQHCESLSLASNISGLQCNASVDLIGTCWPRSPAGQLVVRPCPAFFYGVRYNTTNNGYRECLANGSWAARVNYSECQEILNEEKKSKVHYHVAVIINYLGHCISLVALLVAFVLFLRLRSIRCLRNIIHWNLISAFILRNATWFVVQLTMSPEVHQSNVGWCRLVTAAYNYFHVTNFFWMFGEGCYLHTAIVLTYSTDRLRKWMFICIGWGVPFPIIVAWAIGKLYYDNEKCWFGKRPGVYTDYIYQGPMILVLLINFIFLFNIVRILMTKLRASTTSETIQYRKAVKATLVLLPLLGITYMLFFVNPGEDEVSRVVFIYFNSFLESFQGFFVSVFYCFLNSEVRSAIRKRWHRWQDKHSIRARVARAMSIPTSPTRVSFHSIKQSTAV", "format": "binding, rhesus monkey"}, "[2]": {"molecular_target": "CRF2 R (Rattus norvegicus, UniProt P47866)", "sequence (P47866 1-431 isoform P47866-2)": "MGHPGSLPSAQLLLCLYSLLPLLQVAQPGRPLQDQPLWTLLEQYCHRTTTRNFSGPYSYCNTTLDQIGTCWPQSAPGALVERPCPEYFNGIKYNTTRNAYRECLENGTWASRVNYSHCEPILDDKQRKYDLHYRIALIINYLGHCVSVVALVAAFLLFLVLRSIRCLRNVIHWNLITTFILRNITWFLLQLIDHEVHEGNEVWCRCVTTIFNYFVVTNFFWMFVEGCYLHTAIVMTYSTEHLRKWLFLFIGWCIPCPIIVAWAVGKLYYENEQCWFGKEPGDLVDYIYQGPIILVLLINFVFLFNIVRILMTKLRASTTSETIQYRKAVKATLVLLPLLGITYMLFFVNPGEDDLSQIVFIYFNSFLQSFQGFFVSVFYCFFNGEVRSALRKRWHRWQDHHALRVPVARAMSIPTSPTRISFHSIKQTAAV", "experiment": "In vitro autoradiography competition with [125I]Sauvagine, rat choroid plexus", "format": "binding", "conditions": "read-out: Rat choroid plexus Ki; [125I] Sauvagine 0.1 nM; n=3"}, "[3]": {"molecular_target": "T2, CRF1 receptors (Rattus norvegicus, UniProt P35353)", "T2 sequence (P35353 24-415)": "T1 sequence (Q76LL8 24-415) with H6R, S9N, A13T, I16V, M153V, G163A, I209V, Y229H, H356R", "experiment": "In vitro autoradiography competition with [125I]Sauvagine, rat frontal cortex", "format": "binding"}, "[4]": {"system": "P-gp", "conditions": "ref Kiesewetter et al., 2003; cited from earlier work"}, "[5]": {"molecular_target": "T1, CRF1 receptor", "experiment": "In vitro autoradiography with radioligand", "format": "binding, rhesus monkey", "conditions": "saturation, ROIs in monkey prefrontal/frontal cortex; n=3"}, "[6]": {"conditions": "monkey frontal cortex, [125I]o-CRH"}}, "note": "Positions count from the first letter of the chain named.", "data": [{"smiles": "COCCN(CCOC)c1nc(C)nc2c(-c3c(OC)cc(Br)cc3OC)c(C)nn12", "note": "[4-Br-BMK-152, [8-(4-bromo-2,6-dimethoxyphenyl)-2,7-dimethylpyrazolo[1,5-α][1,3,5]triazin-4-yl]-N,N-bis-(2-methoxyethyl)amine]", "values": [{"measurement": "greater affinity compared to 3-Br-BMK", "setting": "[1]; [6]", "result": 70, "unit": "fold"}, {"measurement": "greater affinity compared to o-CRH", "setting": "[1]; [6]", "result": 4, "unit": "fold"}, {"measurement": "Ki", "setting": "[1]; read-out: Rhesus Frontal Cortex Ki, [125I]-oCRH 0.125 nM, mean ± SD, n=3", "result": "0.35 ± 0.05", "unit": "nM"}, {"measurement": "Ki", "setting": "[2]", "result": "> 1000", "unit": "nM"}, {"measurement": "greater affinity compared to o-CRH", "setting": "[3]; rat frontal cortex, [125I]Sauvagine", "result": 5, "unit": "fold"}, {"measurement": "Ki", "setting": "[3]; read-out: Rat Frontal Cortex Ki, [125I] Sauvagine 0.1 nM, mean ± SD, n=3", "result": "0.15 ± 0.05", "unit": "nM"}]}, {"smiles": "CC(=O)O[C@H]1C(=O)[C@@]2(C)[C@H]([C@H](OC(=O)c3ccccc3)[C@]3(O)C[C@H](OC(=O)[C@H](O)[C@@H](NC(=O)c4ccccc4)c4ccccc4)C(C)=C1C3(C)C)[C@]1(OC(C)=O)CO[C@@H]1C[C@@H]2O", "note": "[paclitaxel]", "values": [{"measurement": "increase in P-gp KO mice compared to WT mice", "setting": "[4]", "result": 640, "unit": "%"}]}, {"smiles": "CC[C@H](C)[C@H](NC(=O)[C@H](CC(=O)O)NC(=O)[C@H](CC(C)C)NC(=O)[C@H](CC(C)C)NC(=O)[C@H](CCCCN)NC(=O)[C@H](CCCNC(=N)N)NC(=O)[C@H](CC(N)=O)NC(=O)[C@H](CO)NC(=O)[C@H](Cc1c[nH]cn1)NC(=O)[C@H](C)NC(=O)[C@H](CCC(N)=O)NC(=O)[C@H](CCC(N)=O)NC(=O)[C@H](C)NC(=O)[C@H](CC(C)C)NC(=O)[C@H](CCC(N)=O)NC(=O)[C@H](CC(=O)O)NC(=O)[C@H](C)NC(=O)[C@H](CCCCN)NC(=O)[C@@H](NC(=O)[C@H](CCSC)NC(=O)[C@H](CCC(=O)O)NC(=O)[C@H](CC(C)C)NC(=O)[C@@H](NC(=O)[C@H](CCC(=O)O)NC(=O)[C@H](CCCNC(=N)N)NC(=O)[C@H](CC(C)C)NC(=O)[C@H](CC(C)C)NC(=O)[C@H](Cc1c[nH]cn1)NC(=O)[C@H](Cc1ccccc1)NC(=O)[C@@H](NC(=O)[C@H](CC(C)C)NC(=O)[C@H](CC(=O)O)NC(=O)[C@H](CC(C)C)NC(=O)[C@H](CO)NC(=O)[C@@H](NC(=O)[C@@H]1CCCN1C(=O)[C@@H]1CCCN1C(=O)[C@H](CCC(=O)O)NC(=O)[C@H](CCC(N)=O)NC(=O)[C@H](CO)NC(=O)[C@@H](N)Cc1ccc(O)c(I)c1)[C@@H](C)CC)[C@@H](C)O)C(C)C)[C@@H](C)O)C(=O)N[C@@H](C)C(N)=O", "note": "[[^125I]o-CRH]", "values": [{"measurement": "Kd", "setting": "[5]", "result": "0.68 ± 0.22", "unit": "nM"}]}]}
